{"source": "paper PMC11141866", "about": "“Pyrimidine depletion enhances targeted and immune therapy combinations in acute myeloid leukemia” (JCI Insight, 2024)", "key": {"[1]": {"molecular_target": "Mouse DHODH (Mus musculus, UniProt O35435)", "sequence (O35435 whole entry)": "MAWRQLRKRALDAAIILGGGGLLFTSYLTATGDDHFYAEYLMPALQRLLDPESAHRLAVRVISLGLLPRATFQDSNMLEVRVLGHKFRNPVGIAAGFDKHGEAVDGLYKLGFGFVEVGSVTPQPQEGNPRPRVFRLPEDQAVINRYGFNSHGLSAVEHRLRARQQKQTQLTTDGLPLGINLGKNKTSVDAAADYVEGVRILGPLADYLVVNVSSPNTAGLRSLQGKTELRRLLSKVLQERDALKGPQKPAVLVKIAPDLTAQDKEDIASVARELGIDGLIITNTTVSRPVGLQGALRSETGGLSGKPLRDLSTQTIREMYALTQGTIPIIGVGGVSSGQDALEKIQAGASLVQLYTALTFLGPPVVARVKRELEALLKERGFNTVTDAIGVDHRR", "test": "Cell-free multi-species DHODH enzyme inhibition assay, mouse", "format": "biochemical", "conditions": "n=1"}, "[2]": {"system": "OCI-AML3", "test": "MTS proliferation assay, OCI-AML3", "format": "cell-based", "conditions": "Homo sapiens, OCI-AML-3; OCI-AML3, 96-hour treatment; read-out: IC50 (MTS proliferation)", "method": "A total of 10,000–20,000 cells from different AML lines or 50,000–75,000 cells of primary AML blasts were treated in a 96-well plate for 72 hours or 96 hours at 37°C, 5% CO2. CellTiter 96 Aqueous MTS reagent (Promega) was added to cells followed by a 3-hour incubation at 37°C, 5% CO2. The absorbance was measured at 490 nm using DTX 880 plate reader, and the IC50 was calculated using GraphPad Prism."}, "[3]": {"system": "MOLM-13 disseminated CDX AML model", "test": "MOLM-13 CDX efficacy study correlated with PK/PD (survival)", "format": "in vivo", "method": "Male 8- to 12-week-old NCG mice were engrafted with 1 × 10^5 cells via tail vein i.v. injection. Four days after engraftment (day 1 of treatment), mice (n = 9–10/arm) were randomized to receive p.o. qd vehicle (40% HPβCD) or p.o. qd HOSU-53 at 4, 10, and 20 mg/kg or 30 mg/kg biwk till moribundity or end of study, day 73. An additional study was done for PK/PD correlation with the survival study where 9 mice per group were randomized to receive p.o. qd vehicle (40% HPβCD) or p.o. qd HOSU-53 at 4, 10, and 20 mg/kg or 30 mg/kg biwk till day 14. Mice were bled for plasma collection to analyze HOSU-53 and DHO concentrations 1 day after the first dose and on day 14 for cumulative plasma concentration analysis. Figure 3B and Figure 4, A and B, share the same vehicle group."}, "[4]": {"system": "plasma DHO", "test": "DHO plasma accumulation in MOLM-13 tumor-bearing mice", "format": "in vivo, NCG mice", "set-up": "unit not given here", "conditions": "male mice, per mouse", "method": "Male 8- to 12-week-old NCG mice were engrafted with 1 × 10^5 cells via tail vein i.v. injection. […] Figure 3B and Figure 4, A and B, share the same vehicle group. page 6: Plasma samples were obtained following appropriate dosing administration and saved in the -80°C freezer till the time of analysis. Analyses by LC-MS/MS followed sample extraction by protein precipitation and separation by Ultra Performance Liquid Chromatography (UPLC, Waters Corporation, MA, USA) using a C18 column, 1.7um, 2.1x50mm, Mobile Phase A: 5:95:0.1 (v:v:v) Acetonitrile:Water:Formic Acid, Mobile Phase B: 50:50:0.1 (v:v:v) Methanol:Acetonitrile:Formic Acid. MS/MS analyses were performed on an API-6500 (Absciex MA, USA) in positive mode using an electrospray source at 550°C. The internal standard was d4-AEA monitored at 352.2 and 66.0 m/z transitions and the target analyte, HOSU-53, was monitored at 416.5 and 331.1 m/z transitions. The assay was qualified between 10-5,000 ng/ml HOSU53 to be within ±20% for QCs above the LLOQ in this range and ±25% at the LLOQ. DHO concentration quantification in mouse plasma samples. Plasma samples were obtained following appropriate dosing administration and saved in the -80°C freezer till the time of analysis. Analyses by LC-MS/MS followed sample extraction by protein precipitation and separation by Ultra Performance Liquid Chromatography (UPLC, Waters Corporation, MA, USA) using a Phenomenex Aqua C18 100x4.6mm, 3uM, […], Mobile Phase A: 100:0.1 (v:v) Water:Formic Acid, Mobile Phase B: 100:0.1 (v:v) Methanol:Formic Acid. MS/MS analyses were performed on an API-4000 (Absciex MA, USA) in negative mode using an electrospray source at 550°C. The internal standard was labeled 13C14_L-Dihydroorotic Acid monitored at 161.3 and 117.1 m/z transitions and the target analyte, L-Dihydroorotic Acid (DHO), was monitored at 157.0 and 70.0 m/z transitions. The assay was qualified between 10.0-30,000 ng/ml DHO to be within ±20% for QCs above the LLOQ in this range and ±25% at the LLOQ."}, "[5]": {"system": "MOLM-13 disseminated CDX AML model", "test": "MOLM-13 CDX synergy with anti-CD47 immunotherapy", "format": "in vivo, NCG mice", "conditions": "event 1 = death, 0 = censored", "method": "Male 8- to 12-week-old NCG mice were engrafted with […] cells via tail vein i.v. injection. Four days after engraftment (day 1 of treatment), mice (n = 10/arm) were randomized to receive p.o. qd and i.p. vehicle, daily oral 4 mg/kg or 10 mg/kg HOSU-53, 0.5 mg/animal i.p. anti-CD47 B6H12 (BioXCell) daily for 21 days, or HOSU-53 combination with anti-CD47. At day 80, half of the surviving mice in the combination cohorts were euthanized for bone marrow collection, leaving the remaining mice in the group on study without receiving any treatment. […] Figure 8, A and B, share the same vehicle and anti-CD47 cohorts."}, "[6]": {"test": "LogD", "format": "physicochemical", "conditions": "pH 7.4", "source_text": "(§1) Supplement jciinsight-9-173646-s083.xlsx, sheet \"Supplemental Table S.2.\" | column: HOSU-53"}, "[7]": {"test": "Thermodynamic solubility", "format": "physicochemical", "conditions": "thermodynamic from solid", "source_text": "as §1"}, "[8]": {"molecular_target": "CYP 1A2 (Homo sapiens, UniProt P05177)", "sequence (P05177 whole entry)": "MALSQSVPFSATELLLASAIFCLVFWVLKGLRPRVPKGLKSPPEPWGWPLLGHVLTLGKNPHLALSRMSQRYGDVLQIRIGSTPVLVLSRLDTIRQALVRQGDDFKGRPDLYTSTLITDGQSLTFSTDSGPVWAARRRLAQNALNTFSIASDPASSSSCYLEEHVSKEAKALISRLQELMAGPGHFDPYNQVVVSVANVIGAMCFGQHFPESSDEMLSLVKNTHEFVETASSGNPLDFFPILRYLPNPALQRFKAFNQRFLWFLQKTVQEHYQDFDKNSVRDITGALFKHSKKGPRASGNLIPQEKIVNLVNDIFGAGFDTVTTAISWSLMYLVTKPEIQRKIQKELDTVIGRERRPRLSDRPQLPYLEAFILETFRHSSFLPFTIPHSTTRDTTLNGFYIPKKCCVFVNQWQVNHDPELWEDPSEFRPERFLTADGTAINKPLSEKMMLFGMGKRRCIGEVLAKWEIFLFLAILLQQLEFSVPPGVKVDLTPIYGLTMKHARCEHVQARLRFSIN", "test": "CYP inhibition 1A2", "format": "in vitro ADME", "source_text": "as §1"}, "[9]": {"molecular_target": "CYP 2C19 (Homo sapiens, UniProt P33261)", "sequence (P33261 whole entry)": "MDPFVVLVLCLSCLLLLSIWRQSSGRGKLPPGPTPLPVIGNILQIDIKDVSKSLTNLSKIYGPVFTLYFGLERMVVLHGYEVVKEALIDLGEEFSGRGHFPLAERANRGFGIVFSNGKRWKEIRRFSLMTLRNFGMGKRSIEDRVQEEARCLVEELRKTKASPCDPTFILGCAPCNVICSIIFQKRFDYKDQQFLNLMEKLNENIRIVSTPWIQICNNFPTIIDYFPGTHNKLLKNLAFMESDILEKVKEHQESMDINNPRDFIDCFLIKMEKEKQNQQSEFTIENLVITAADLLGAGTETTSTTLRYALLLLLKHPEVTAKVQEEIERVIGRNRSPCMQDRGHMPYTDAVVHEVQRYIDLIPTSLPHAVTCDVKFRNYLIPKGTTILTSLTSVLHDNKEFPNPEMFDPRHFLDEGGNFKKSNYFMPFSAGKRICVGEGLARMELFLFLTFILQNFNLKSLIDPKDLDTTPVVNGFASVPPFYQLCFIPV", "test": "CYP inhibition 2C19", "format": "in vitro ADME", "source_text": "as §1"}, "[10]": {"test": "Micronucleus Test", "conditions": "5 strain test with S9 activation (so in the source)", "source_text": "as §1"}, "[11]": {"molecular_target": "HSA (Homo sapiens, UniProt P02768)", "sequence (P02768 25-609)": "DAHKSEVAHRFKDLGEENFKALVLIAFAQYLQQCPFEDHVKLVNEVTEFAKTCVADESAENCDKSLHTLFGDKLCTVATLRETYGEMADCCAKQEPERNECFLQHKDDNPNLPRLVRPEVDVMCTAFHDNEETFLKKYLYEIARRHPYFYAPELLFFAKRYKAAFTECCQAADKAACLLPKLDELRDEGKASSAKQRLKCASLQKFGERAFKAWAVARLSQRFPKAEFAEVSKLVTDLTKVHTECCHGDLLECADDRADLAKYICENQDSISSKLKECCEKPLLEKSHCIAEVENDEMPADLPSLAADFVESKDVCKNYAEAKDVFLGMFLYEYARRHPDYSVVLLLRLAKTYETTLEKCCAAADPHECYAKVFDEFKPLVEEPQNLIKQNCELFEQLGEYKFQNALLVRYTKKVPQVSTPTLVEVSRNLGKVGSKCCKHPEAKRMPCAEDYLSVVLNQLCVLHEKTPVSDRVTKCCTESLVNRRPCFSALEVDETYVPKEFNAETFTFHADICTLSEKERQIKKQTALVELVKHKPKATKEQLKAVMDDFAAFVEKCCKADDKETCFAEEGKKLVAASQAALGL", "test": "Protein binding, HSA", "format": "in vitro ADME", "conditions": "4% HSA", "source_text": "as §1"}, "[12]": {"test": "In vivo p.o. PK in dog", "conditions": "po", "source_text": "as §1"}}, "note": "Several values for one entry are separate records, joined by “and”; a condition that tells them apart may be missing. Equal entries are not always repeated.", "data": [{"smiles": "CCCCOc1cccc(-c2ccc(-c3cc(C(=O)O)c4cc(F)ccc4n3)cc2)c1", "note": "[HOSU-53]", "values": [{"measurement": "IC50", "setting": "[1]", "result": 2.1, "unit": "nM"}, {"measurement": "IC50", "setting": "[2]", "result": 20, "unit": "nM"}, {"measurement": "median survival", "setting": "[3]; 10 mg/kg daily p.o.", "result": 55, "unit": "days"}, {"measurement": "tolerability", "setting": "[3]; 20 mg/kg daily p.o.", "result": "intolerable in approximately half the mice"}, {"measurement": "median survival", "setting": "[3]; 30 mg/kg twice weekly p.o.", "result": 48, "unit": "days"}, {"measurement": "tolerability", "setting": "[3]; 30 mg/kg twice weekly p.o.", "result": "well tolerated"}, {"measurement": "Survival, day of study at event (per animal)", "setting": "[3]; 4 mpk poqd", "result": "44 days and 46 days and 43 days and 45 days and 36 days"}, {"measurement": "Survival, day of study at event (per animal)", "setting": "[3]; 10mpk poqd", "result": "55 days and 52 days and 47 days and 60 days and 59 days and 49 days and 63 days and 58 days"}, {"measurement": "Survival, day of study at event (per animal)", "setting": "[3]; 20mpk poqd, flag 0 = censored", "result": "≥ 73 days and 69 days and 46 days and 41 days and 40 days and 71 days and 11 days and 31 days"}, {"measurement": "Survival, day of study at event (per animal)", "setting": "[3]; 30mpk biwk", "result": "50 days and 43 days and 42 days and 48 days and 46 days and 52 days and 44 days and 49 days"}, {"measurement": "DHO AUC (Figure 3C y value)", "setting": "[4]; Day 1, 4 mpk PO, 4 mg/kg", "result": "21.3526 and 23.5341 and 32.163"}, {"measurement": "DHO AUC (Figure 3C y value)", "setting": "[4]; Day 1, 10 mpk PO, 10 mg/kg", "result": "124.368 and 142.962"}, {"measurement": "DHO AUC (Figure 3C y value)", "setting": "[4]; Day 1, 20 mpk PO, 20 mg/kg", "result": "335.03 and 368.431"}, {"measurement": "DHO AUC (Figure 3C y value)", "setting": "[4]; Day 1, 30 mpk PO, 30 mg/kg", "result": "473.057 and 298.48 and 280.181"}, {"measurement": "DHO AUC (Figure 3C y value)", "setting": "[4]; Day 14, 4 mpk PO, 4 mg/kg", "result": "78.3977 and 135.263 and 128.423"}, {"measurement": "DHO AUC (Figure 3C y value)", "setting": "[4]; Day 14, 10 mpk PO, 10 mg/kg", "result": "243.197 and 313.781 and 310.505"}, {"measurement": "DHO AUC (Figure 3C y value)", "setting": "[4]; Day 14, 20 mpk PO, 20 mg/kg", "result": "796.864 and 742.741 and 1170.82"}, {"measurement": "DHO AUC (Figure 3C y value)", "setting": "[4]; Day 14, 30 mpk PO, 30 mg/kg", "result": "464.129 and 594.047 and 535.223"}, {"measurement": "Days of Study (survival, per animal)", "setting": "[5]; 4 mg/kg HOSU-53", "result": "39 days and 46 days and 43 days and 42 days and 32 days and 40 days and 41 days"}, {"measurement": "Days of Study (survival, per animal)", "setting": "[5]; 10 mg/kg HOSU-53", "result": "38 days and 50 days and 49 days and 51 days and 53 days and 52 days"}, {"measurement": "logD", "setting": "[6]", "result": 4.36}, {"measurement": "solubility thermodynamic", "setting": "[7]; FaSSIF, heading: Thermodynamic solubility FaSSIF", "result": 43, "unit": "µM"}, {"measurement": "solubility thermodynamic", "setting": "[7]; FeSSIF, heading: Thermodynamic solubility FeSSIF", "result": 373, "unit": "µM"}, {"measurement": "solubility thermodynamic", "setting": "[7]; SGF, simulated gastric fluid, heading: Thermodynamic solubility SGF", "result": "< 1.56", "unit": "µM"}, {"measurement": "IC50", "setting": "[8]", "result": 19.6, "unit": "µM"}, {"measurement": "IC50", "setting": "[9]", "result": 28, "unit": "µM"}, {"measurement": "Micronucleus Test", "setting": "[10]", "result": "Negative"}, {"measurement": "fraction unbound", "setting": "[11]", "result": "< 0.01"}, {"measurement": "bioavailability", "setting": "[12]; read-out: in vivo p.o. bioavailability (F)", "result": 47, "unit": "%"}, {"measurement": "half-life", "setting": "[12]; read-out: in vivo p.o. t1/2 (converted)", "result": 504, "unit": "min"}]}]}
